Data set [1] concerns the target T1, TTR (Homo sapiens, UniProt P02766).
T1 construct: Expression of TTR was performed as described previously; made in house; host or cells: Escherichia coli BL21
Briefly: Microscale thermophoresis (MST) binding to NT-647-labelled TTR. The conditions noted are these: 300 nM NT-647-labelled TTR, PBS, 5% DMSO, mean ± S.E.M. of three measurements, read-out: dissociation constant (Kd). The protocol:
We used MST to measure the affinity between the different ligands and TTR. TTR was labelled with the Monolith NT protein labelling kit (Nanotemper Technologies, Germany) using the sulfhydryl-reactive red fluorescent dye NT-647 Maleimide according to the manufacturer’s instructions. Labelled TTR was kept at a constant concentration of 300 nM, and luteolin, 7-Cl-Lut and 7-MeO-Lut were serially diluted yielding 13, 16 and 12 respectively different concentrations ranging from 0.24 nM to 1 μM for luteolin, 0.24 nM to 8 μM for 7-Cl-Lut, and 0.61 nM to 1.25 μM for 7-MeO-Lut. Experiments were carried out in phosphate-buffered saline and 5% DMSO with a Monolith NT.115 instrument using standard-treated capillaries (Nanotemper Technologies, Germany). Fluorescence was detected for 5 s, and the laser was switched on for 30 s followed by fluorescence detection for another 5 s. The delay time between runs was set to 25 s. The LED power and the MST were set to 80% for all drugs. Kd values were determined using NTanalysis software (NanoTemper Technologies, Germany) by fitting the data representing the mean ± S.E.M. from three independent measurements to the Kd fit model.
In order to obtain binding affinities between the drugs and TTR, we employed microscale thermophoresis (MST), which is a technique based on the directed movement of molecules in a temperature gradient. This phenomenon depends on a variety of molecular properties such as size, charge, hydration shell, and conformation. The dissociation constant (Kd) for luteolin was determined to be 150 ± 70 nM, which is in accordance with the previously published value of 100 nM determined by isothermal titration calorimetry (Fig 3A).
Fig 3 Binding of luteolin, 7-Cl-Lut and 7-MeO-Lut to NT-647–labeled TTR. Various concentrations of the compounds were titrated against 300 nM of NT-647–labeled TTR. Kd values were determined by averaging three independent experiments (mean ± S.E.M.) using the NT analysis software. The thermophoresis signal was plotted against luteolin (A), 7-Cl-Lut (B) and 7-MeO-Lut (C) concentrations.
(In general: In MST a laser heats a spot of the sample, and binding alters the fluorescence response.)

A short description of data set [2]: Glucuronidation / depletion kinetics in human liver microsomes (UHPLC). The data set is classed as in vitro ADME. The note with it: for half-life at 10 μM: female, pooled human liver microsomes, alamethicin-activated, 10 μM compound, 0.1 mg/mL human liver microsomes, 5 mM UDPGA, 37°C, one-phase exponential decay, read-out: half-life (t1/2); for metabolic stability relative to luteolin: human hepatic microsomes, glucuronidation by UGT enzymes. The protocol:
Pooled female human liver microsomes (n = 10) were purchased from XenoTech (Lenexa, US) and stored at −80°C and rapidly thawed before use. The microsomes, 0.1 mg/mL, were activated by incubation with alamethicin (Santa Cruz Biotechnology, US), 50 μg/mL microsomal protein, in 0.1 M sodium phosphate buffer using a VWR Mini Shaker (Radnor, US) at 37°C and 550 rpm for 10 min. Luteolin, 7-Cl-Lut or 7-MeO-Lut was added to give a final concentration of 10 μM and 5% DMSO, and these were pre-incubated with the activated microsomes for 5 min at 37°C and shaking at 550 rpm. The reaction was initiated by addition of 5 mM uridine 5’-diphosphoglucuronic acid, (Santa Cruz Biotechnology, US). The incubation time ranged from 0 min to 5 h. The reactions were quenched by flash freezing and stored at −80°C. The microsomes were heat inactivated using a VWR UnoCycler (Radnor, US) for 5 min at 95°C. All experiments were repeated three times.
In order to calculate depletion kinetics, the percentage of the remaining drug was calculated by comparison with the initial quantity at 0 min. The half-life (t1/2) of luteolin, 7-Cl-Lut and 7-MeO-Lut was calculated using GraphPad Prism (GraphPad Software, Inc., US, version 5.0). Data were fitted to one-phase exponential decay: C=C0*exp(-K*t) (1) The half-life(t1/2)=0.693/K (2)
Microsome-treated samples were diluted in 50% DMSO. Analytical HPLC was performed using a Nexera UHPLC system (Shimadzu, US) connected to a diode array detector (SPP M20A). Samples were analyzed using a Nucleodur C18 HTec column (EC 150 × 4.6, 5 μm, Macherey-Nagel) with a flow rate of 1 mL/min. Aliquots of 20 μL of each sample were injected, and detection was performed at 345 nm. The mobile phase was composed of solvent A (H2O in 0.1% TFA) and solvent B (acetonitrile in 0.1% TFA). The binary gradient profile was as follows with solvent B as the reference: 0–2.5 min, 17% B; 2.5–7.5 min, 17–25% B; 7.5–15.5 min, 25–35% B; 15.5–20.5 min, 35–50% B; 20.5–25.5 min, 50–100% B; 25.5–30.5 min, 100% B; 30.5–31 min, 100–17% B; 31–35.5 min, 17% B. Before first injection, the column was equilibrated at 17% B for 5 min.
The metabolization of luteolin, 7-Cl-Lut and 7-MeO-Lut by the microsomes can be followed by the decrease in the substrate concentration over time. The data shown in Fig 7 were fitted to a single-component exponential decay model and the half-lives were determined using Eqs (1) and (2). Luteolin was metabolized about 3-fold faster than 7-Cl-Lut with half-lives of 16 ± 1 min and 52 ± 7 min, respectively.
Fig 7 Depletion profile of 10 μM luteolin (triangle), 7-Cl-Lut (square) and 7-MeO-Lut (diamond) after incubation in the presence of 0.1 mg/mL human liver microsomes for various times. Each time point represents the average of three independent samples (mean ± SD) acquired through plotting the integral of the corresponding peaks from the UHPLC analysis.

The target in the next data set is T2, TTR in human plasma (Homo sapiens, UniProt P02766).
T2 construct: Human plasma from a healthy donor; from tissue; host or cells: human plasma (healthy donor)
Briefly: Urea-mediated denaturation gel-shift assay of TTR stabilization in human plasma (western blot of monomers). The data set is classed as biochemical. The note with it: for IC50: 4 M urea, 18 h, 20°C, densitometry of the monomeric band, read-out: IC50 (half maximal inhibitory concentration of TTR dissociation into monomers); for stoichiometric excess relative to TTR in human plasma to achieve the same stabilizing effect as luteolin: TTR assumed 5 μM. The protocol: We have recently developed an assay in which the relative stability as a function of drug concentration can be evaluated in complex solutions [21]. TTR is found within the human plasma, and it is thus of interest to analyze drug efficacy in TTR’s natural environment. The analysis was performed as described previously with some modifications. Human plasma from a healthy donor was centrifuged at 20,000 × g for 10 min. The plasma was filtered using a 0.45 μm syringe filter (Filtropur S, Nümbrecht, Germany). A solution of 1 M sodium phosphate buffer at pH 7.0 was added to a final concentration of 40 mM. […] The reactions were incubated for 2 h at 20°C. Denaturation was initiated by addition of 4 M urea, 40 mM sodium phosphate buffer pH 7.4, and 150 mM NaCl. The samples were incubated for 18 h at 20°C followed by separation by gel electrophoresis using tricine-based SDS-PAGE with 0.025% SDS in the running buffer and 0.2% SDS in the loading buffer. […] Gel electrophoresis was followed by western blotting using rabbit anti-TTR antibody (anti-prealbumin, DAKO, Denmark) followed by a horseradish peroxidase-labeled antibody (anti-rabbit HRP, GE Healthcare, Sweden). Blocking of nonspecific binding on the membrane and incubation of the antibodies were performed in 5% fat-free powdered milk containing 0.3% Tween-20. All washing steps were performed in 40 mM Tris, 150 mM NaCl, and 0.3% Tween-20. Bound antibodies were visualized on photographic film using enhanced chemiluminescence (ECL-prime, GE Healthcare, UK). […] The presence of monomers on the photographic film was quantified through a densitometric analysis using the ImageJ 1.48 software (National Institutes of Health, […], US), which also ensured that all analyses were performed within a linear range. The plasma concentration of TTR is approximately 5 μM [38], and this implies that a drug must be present at ≥5 μM to work effectively as a stabilizer. Here we used a recently developed urea-mediated denaturation assay to determine the drug concentration needed in plasma to obtain the half maximal inhibitory concentration (IC50). In the experiment, the dissociation of TTR into monomers is monitored by the appearance of a monomeric band on a western blot (Fig 8). The fraction of denaturation was quantified by densitometric analysis using ImageJ 1.48 software. […] Fig 8 Determination of IC50 for luteolin, 7-Cl-Lut and 7-MeO-Lut in human plasma. The drug’s ability to selectively stabilize TTR in plasma was evaluated using a urea denaturation assay. The dissociation of the TTR tetramer is indicated by the presence of a monomeric TTR band on a western blot. (A) Gel-shift assay of various concentrations of luteolin in human plasma. […] (C) Gel-shift assay of various concentrations of 7-MeO-Lut in human plasma.

The target of data set [3] is T1, TTR. Further details: method as in ref 49 = [49]; PMID 22842046; doi:10.1016/j.jsb.2012.07.008; 49 Trivella DB , dos Reis CV , Lima LM , Foguel D , Polikarpov I ( 2012 ) Flavonoid interactions with human transthyretin: combined structural and thermodynamic analysis . J Struct Biol 180 : 143 – 15. The note with it: binding to TTR; cited from earlier work.
Data set [4] has as its target T1, TTR. The arrangement: method as in ref 37 = [37]; PMID 22842046; doi:10.1016/j.jsb.2012.07.008; 37 Trivella DBB , dos Reis CV , Lima LMTR , Foguel D , Polikarpov I ( 2012 ) Flavonoid interactions with human transthyretin: Combined structural and thermodynamic analysis . Journal of Structural Bio. The conditions noted are these: isothermal titration calorimetry; read-out: Kd, previously published value; cited from earlier work. In general terms: In ITC the heat of successive injections is recorded.

Details of data set [5]: method as in PMID 23556338. The note with it: in vivo persistence against metabolic activity; cited from earlier work.

Where two headings read alike, the source gives them in different places.

For the molecule `O=c1cc(-c2ccc(O)c(O)c2)oc2cc(Cl)cc(O)c12` [7-Cl-Lut, 2-(3,4-dihydroxyphenyl)-5-hydroxy-7-chloro-4H-1-benzopyran-4-one], the Kd on TTR [1] worked out at 620 ± 150 nM. Moreover, in data set [2], the half-life at 10 μM was determined as 52 ± 7 min and the “metabolic stability relative to luteolin” value is “approximately 3 fold”. Further, at TTR in human plasma, the IC50 was about 65 µM and the “stoichiometric excess relative to TTR in human plasma to achieve the same stabilizing effect as luteolin” value is 13 fold.
As for `COc1cc(O)c2c(=O)cc(-c3ccc(O)c(O)c3)oc2c1` [7-MeO-Lut, 2-(3,4-dihydroxyphenyl)-5-hydroxy-7-methoxy-4H-1-benzopyran-4-one], the Kd at TTR [1] came to 390 ± 40 nM. For the same molecule, in data set [2], the half-life at 10 μM came out at 36 ± 8 min and the “metabolic stability relative to luteolin” value is “doubled”. In addition, on TTR in human plasma, the IC50 was about 105 µM and the “stoichiometric excess relative to TTR in human plasma to achieve the same stabilizing effect as luteolin” value is recorded as 21 fold.
Turning to `O=c1cc(-c2ccc(O)cc2)oc2cc(O)cc(O)c12` [apigenin], the “times lower affinity compared to luteolin” value on TTR [3] was 5 times.
For the molecule `O=c1cc(-c2ccccc2)oc2cc(O)cc(O)c12` [chrysin], the “times lower affinity compared to luteolin” value at TTR [3] was 17 times.
For the molecule `O=c1cc(-c2ccc(O)c(O)c2)oc2cc(O)cc(O)c12` [luteolin], the Kd at TTR [1] was 150 ± 70 nM; at TTR [4] it was 100 nM. In data set [2], the half-life at 10 μM was found to be 16 ± 1 min. In addition, at TTR in human plasma, the IC50 was about 5 µM. Further, in data set [5], the half-life entry is “around 8 hours”.

As usually defined, the Kd is a measure of binding affinity in units of concentration.
